Results published in PubChem BioAssay AID624339 (Sanford-Burnham Center for Chemical Genomics, 2012).
The source made the active and inactive calls. The rule behind the calls is not given here.

System: PAMPA artificial membrane permeability, pH 7.4
Experiment: PAMPA permeability at pH 7.4 – biophysical, ADME assay (AID 624339)
Conditions: at 100 µM, stronger effect = higher value

Row | Structure (SMILES) | permeability Pe | permeability Pe (with 20% ACN)
1 | CCCc1nc2c(=O)n(C)c(=O)nc-2n(C)n1 | 0 10-6 cm/s (inactive) | –
2 | Brc1cc2c(cc1C1Nc3ccccc3C3C=CCC31)OCO2 (stereo not drawn) | 37 10-6 cm/s | –
3 | COc1nc(-c2ccccc2)nnc1-c1ccccc1 | 1240 10-6 cm/s | –
4 | N#C/C(=C\c1ccc([N+](=O)[O-])o1)c1nc2ccccc2[nH]1 | 145 10-6 cm/s | –
5 | CN(C)c1oc(-c2ccc(OCc3ccc(Cl)cc3)cc2)nc1C#N | 208 10-6 cm/s | –
6 | CCOC(=O)C(C)Oc1cccc2c(=O)n(CC(=O)Nc3ccc4c(c3)OCCO4)ccc12 (stereo not drawn) | 441 10-6 cm/s | –
7 | COc1ccc(CSc2nc(C)cc(=O)[nH]2)cc1 | 165 10-6 cm/s | –
8 | Cn1cnc([N+](=O)[O-])c1Sc1ncnc2nc[nH]c12 | 3 10-6 cm/s (inactive) | –
9 | Cc1ccc(S(=O)(=O)NCc2ccc(C(=O)NCCN(Cc3ccccc3)C(C)C)cc2)cc1 | 1480 10-6 cm/s | –
10 | Cc1cc(C(=O)CN2C(=O)CCC2=O)c(C)n1Cc1ccccc1 | 250 10-6 cm/s | –
11 | CN(C)c1nc(N)nc(CSc2nnnn2-c2cccc3ccccc23)n1 | 268 10-6 cm/s | –
12 | Brc1ccc2c(c1)CN1CCCC1=N2 | 786 10-6 cm/s | –
13 | O=C1CCCC2=C1C1(CCCC1)N=C(Nc1nc3ccccc3o1)N2 | 436 10-6 cm/s | –
14 | O=C(O)CCC(NS(=O)(=O)c1ccc(-c2ccccc2)cc1)C(=O)O (stereo not drawn) | < 0.4 10-6 cm/s (inactive) | –
15 | c1ccc2c(Nc3nnc(-c4ccncc4)s3)cccc2c1 | 211 10-6 cm/s | –
16 | CSc1nc(-c2ccc(C)cc2)nc(C(Cl)Cl)n1 | – | 154 10-6 cm/s
17 | CCc1nnc(NC(=O)c2ccc(NS(=O)(=O)c3ccccc3)cc2)s1 | 163 10-6 cm/s | –
18 | COc1ccc(S(=O)(=O)n2nc(OC(=O)c3ccccc3)cc2N)cc1 | 459 10-6 cm/s | –
19 | c1ccc(CC2CCN(c3ncnc4sccc34)CC2)cc1 | 1020 10-6 cm/s | –
20 | CCOc1ccc(-c2nc(-c3ccncc3)no2)cc1OCC | 1030 10-6 cm/s | –
21 | Cc1ccc(C(=O)n2c3ccccc3c3ccccc32)cc1 | – | 352 10-6 cm/s
22 | Cc1cc(C)n(-c2nc(NCCCO)c3c4c(sc3n2)CCCC4)n1 | 1130 10-6 cm/s | –

Row | Structure (SMILES) | permeability Pe | permeability Pe (with 20% ACN)
23 | O=c1c(O)c(-c2cc(O)c(O)c(O)c2)oc2cc(O)cc(O)c12 | 1.7 10-6 cm/s (inactive) | –
24 | N#Cc1ccccc1CSc1nc2ncc(Br)cc2[nH]1 | 144 10-6 cm/s | –
25 | O=[N+]([O-])c1ccc(CN2CCOCCOCCN(Cc3ccc([N+](=O)[O-])cc3)CCOCC2)cc1 | 1080 10-6 cm/s | –
26 | O=C(O)c1ccccc1OCc1ccccc1Br | 22 10-6 cm/s | –
27 | Cc1ccc(N2CCN(S(=O)(=O)N3CCCCC3)CC2)c(C)c1 | 263 10-6 cm/s | –
28 | C/C=C/Cn1c(SCCCc2ccccc2)nc2c1c(=O)[nH]c(=O)n2C | 1340 10-6 cm/s | –
29 | COc1ccc(OC)c(S(=O)(=O)Nc2cnc3ccccc3c2)c1 | 706 10-6 cm/s | –
30 | COc1ccc(N(C(=O)CCl)C(C(=O)NCCc2ccccc2)c2cccs2)cc1Cl (stereo not drawn) | 568 10-6 cm/s | –
31 | Cc1ccc(C)c(OCCn2cc(C(=O)O)c3ccccc32)c1 | 256 10-6 cm/s | –
32 | C=CCn1c(SCC(=O)c2ccc(O)c(O)c2)nnc1-c1ccccc1OC | 88 10-6 cm/s | –
33 | Cc1ccc(S(=O)(=O)n2c(N)nc3ccccc32)cc1 | 370 10-6 cm/s | –
34 | O=c1[nH]c2c(s1)C(c1cccnc1)C1C3CCC(C3)C1S2 (stereo not drawn) | 830 10-6 cm/s | –
35 | COc1ccc(S(=O)(=O)N2CCN(S(=O)(=O)c3ccc4c(c3)OCCO4)CC2)cc1 | 562 10-6 cm/s | –
36 | O=S1(=O)Nc2c(ccc3cccnc23)-c2ccccc21 | 75 10-6 cm/s | –
37 | CCCc1cc(C(=O)N(C2CCCCC2)C2CCCCC2)no1 | 0.01 10-6 cm/s (inactive) | –
38 | Cc1ccc(NS(=O)(=O)c2ccc3c(c2)CCC(=O)N3)cc1C | 622 10-6 cm/s | –
39 | O=C(O)c1cccnc1SCCc1ccccc1 | 17 10-6 cm/s | –
40 | COc1ccc(C2c3c(ncn(CCN4CCOCC4)c3=N)Oc3ccc4ccccc4c32)cc1OC (stereo not drawn) | 1440 10-6 cm/s | –
41 | O=C(COc1ccccc1Br)NCCc1nc2ccccc2[nH]1 | 795 10-6 cm/s | –
42 | c1ccc(-c2nnc(N3CCOCC3)nc2-c2ccccc2)cc1 | 1490 10-6 cm/s | –
43 | Cc1cc(-c2nnc3n2CCCCC3)c(C)n1-c1ccccc1 | 393 10-6 cm/s | –
44 | COc1ccc(CNCc2cccc3ccccc23)cc1 | 1130 10-6 cm/s | –

Row | Structure (SMILES) | permeability Pe | permeability Pe (with 20% ACN)
45 | O=C(c1ccccn1)N(Cc1cccs1)C1(C(=O)NC2CCCCC2)CCCCC1 | 1580 10-6 cm/s | –
46 | Cc1nc(SCc2nc3ccccc3[nH]2)c2oc3ccccc3c2n1 | 720 10-6 cm/s | –
47 | Cc1cc2c(s1)c1cnn(Cc3ccccc3F)c(=O)c1n2C | 913 10-6 cm/s | –
48 | Cc1ccnc(NC(=O)CCCOc2cc(=O)n(C)c3ccccc23)c1 | 510 10-6 cm/s | –
49 | Cc1ccc(NC(=O)CCC(=O)N/N=C/c2ccc([N+](=O)[O-])o2)cc1C | 37 10-6 cm/s | –
50 | Cc1cccc(-n2cnc3cc(C(=O)N4CCCCC4)ccc32)c1 | 748 10-6 cm/s | –
51 | COc1ccccc1N(/N=C1\Sc2ccccc2C1=O)C(C)=O | 831 10-6 cm/s | –
52 | O=C(CCNS(=O)(=O)c1cccc2nsnc12)N1CCN(c2ccccn2)CC1 | 143 10-6 cm/s | –
53 | CCCOc1ccc(-c2nc(OC)c3ccccc3n2)cc1 | 26 10-6 cm/s | –
54 | NC(=O)C1CCN(c2nc(-c3ccc(Br)cc3)cs2)CC1 | 284 10-6 cm/s | –
55 | O=c1[nH]c(SCc2ccc(Cl)cc2)nc2c1CCC2 | 631 10-6 cm/s | –
56 | O=C1NCCCc2c1oc1ccc(O)cc21 | 13 10-6 cm/s | –
57 | Cc1ccc(-n2c(N)c(C#N)c(-c3ccccc3)c(C#N)c2=O)cc1 | 67 10-6 cm/s | –
58 | O=S(=O)(NC1CCCCC1N1CCOCC1)c1ccc(Cl)cc1 (stereo not drawn) | 815 10-6 cm/s | –
59 | CCCn1ncc(CN2CCCC(C(=O)c3cccc(OC(C)C)c3)C2)c1C (stereo not drawn) | 1310 10-6 cm/s | –
60 | O=c1c2ccccc2[se]n1-c1ccccc1 | 448 10-6 cm/s | –
61 | CCCC(=O)Nc1cccc(NC(=O)c2ccccc2Br)c1 | 190 10-6 cm/s | –
62 | O=C(O)c1ccc(N2C(=O)/C(=C/c3ccc(-c4ccc([N+](=O)[O-])cc4)o3)C=C2c2ccccc2)cc1 | < 0.8 10-6 cm/s (inactive) | –
63 | CC(C)C(=O)NC(c1ccco1)c1ccc2cccnc2c1O (stereo not drawn) | 286 10-6 cm/s | –
64 | CN1CSC(=S)N(C)C1 | 18 10-6 cm/s | –
65 | Cc1ccccc1N1CCN(c2ncnc3c2cnn3Cc2ccc(Cl)cc2)CC1 | – | 1100 10-6 cm/s
66 | CCCN1CNc2c(c(=O)[nH]c(=S)n2CCc2ccc(OC)c(OC)c2)C1 | 75 10-6 cm/s | –

Row | Structure (SMILES) | permeability Pe | permeability Pe (with 20% ACN)
67 | COc1ccc(OC)c(-c2nnc3n2N=C(c2ccc(OC)c(OC)c2)CS3)c1 | 590 10-6 cm/s | –
68 | COc1cccc(-c2nc(-c3ccc(NC(=O)Cc4ccccc4OC)cc3)no2)c1 | – | 863 10-6 cm/s
69 | Cc1cc(C)nc(-n2nc(C)c(Sc3ccc(F)cc3)c2N)n1 | 1020 10-6 cm/s | –
70 | CC1CCCN(C(C(=O)Nc2ccc3c(c2)OCCO3)c2ccccc2)C1 (stereo not drawn) | 2010 10-6 cm/s | –
71 | COc1ccc(Sc2ccc(NC(=O)c3ccccc3Cl)cc2C#N)cc1 | – | 487 10-6 cm/s
72 | CCN1CCN(c2nc3ccccc3nc2C(C#N)C(=O)OC2CCCCC2)CC1 (stereo not drawn) | 2130 10-6 cm/s | –
73 | O=C1C2CC=CCC2C(=O)N1c1n[nH]c(-c2ccccc2)n1 (stereo not drawn) | 63 10-6 cm/s | –
74 | COc1cc(NC(=O)c2cc(C3CC3)on2)c(OC)cc1Cl | 720 10-6 cm/s | –
75 | COc1ccc(C2CC(c3ccccc3)=NN2c2ccc(S(N)(=O)=O)cc2)cc1 (stereo not drawn) | 278 10-6 cm/s | –
76 | Oc1cc(O)cc(/C=C/c2ccc(O)c(O)c2)c1 | 1.2 10-6 cm/s (inactive) | –
77 | CCCN(CCC)CCNC(=O)C1CCN(Cc2nc(-c3ccc(Cl)cc3)oc2C)CC1 | 1860 10-6 cm/s | –
78 | CS(=O)(=O)c1ccc(C(=O)OCC(=O)NC23CC4CC(CC(C4)C2)C3)cc1[N+](=O)[O-] | 443 10-6 cm/s | –
79 | COC(=O)c1ccccc1NC(=O)c1ccc(F)cc1 | 629 10-6 cm/s | –
80 | Cn1nnnc1Sc1ncnc2scc(-c3ccccc3)c12 | 973 10-6 cm/s | –
81 | CC(=O)c1ccc(N2CCN(S(=O)(=O)c3ccc4c(c3)CC(=O)N4)CC2)cc1 | 194 10-6 cm/s | –
82 | CCOc1ccc(NC(=S)N2CCC(C(O)(c3ccccc3)c3ccccc3)CC2)cc1 | 682 10-6 cm/s | –
83 | O=C(COC(=O)C12CC3CC(CC(C3)C1)C2)NCc1ccco1 | 195 10-6 cm/s | –
84 | O=c1oc2c(O)c(O)cc3c(=O)oc4c(O)c(O)cc1c4c23 | 3.1 10-6 cm/s (inactive) | –
85 | CCc1oc2ccccc2c1C(=O)c1cc(Br)c(O)c(Br)c1 | 71 10-6 cm/s | –
86 | Cc1ccc(C)c(NS(=O)(=O)c2cc(C(=O)Nc3ccccc3-c3ccccc3)ccc2Cl)c1 | – | 253 10-6 cm/s
87 | O=C(CSc1cccc2cccnc12)N1CCCC1 | 101 10-6 cm/s | –
88 | CN(C)C1=C(Cl)C(=O)N(c2ccc(Cl)c(Cl)c2)C1=O | – | 381 10-6 cm/s
